# Test results from the supplement of paper PMC13380429.
# Where a name gives a salt, the structure may show the parent alone. ± gives the standard deviation of the averaged measurements.
# Assays:
# Conditions in all cases: 72 h
# [1] = system: Caco-2; assay: cell viability relative to DMSO; higher = less toxic
# [2] = system: Calu-3; assay: as above
# [3] = system: HepG2; assay: as above
# [4] = system: U2OS; assay: as above
# [5] = system: Vero E6; assay: as above
# [6] = system: Caco-2; assay: relative viability EC50 (midpoint between 100% and the lowest measured viability); higher = less toxic
# [7] = system: Calu-3; assay: as above
# [8] = system: HepG2; assay: as above
# [9] = system: U2OS; assay: as above
# [10] = system: Vero E6; assay: as above
# [11] = system: Caco-2; assay: drug sensitivity score (DSS) for viability; higher = more toxic; extreme values may be limits of the assay
# [12] = system: Calu-3; assay: as above
# [13] = system: HepG2; assay: as above
# [14] = system: U2OS; assay: as above
# [15] = system: Vero E6; assay: as above
Structure (SMILES),cell viability ([1]; 1 nM),cell viability ([1]; 10 nM),cell viability ([1]; 100 nM),cell viability ([1]; 1000 nM),cell viability ([1]; 10000 nM),cell viability ([2]; 1 nM),cell viability ([2]; 10 nM),cell viability ([2]; 100 nM),cell viability ([2]; 1000 nM),cell viability ([2]; 10000 nM),cell viability ([3]; 1 nM),cell viability ([3]; 10 nM),cell viability ([3]; 100 nM),cell viability ([3]; 1000 nM),cell viability ([3]; 10000 nM),cell viability ([4]; 1 nM),cell viability ([4]; 10 nM),cell viability ([4]; 100 nM),cell viability ([4]; 1000 nM),cell viability ([4]; 10000 nM),cell viability ([5]; 1 nM),cell viability ([5]; 10 nM),cell viability ([5]; 100 nM),cell viability ([5]; 1000 nM),cell viability ([5]; 10000 nM),relative viability EC50 [6],relative viability EC50 [7],relative viability EC50 [8],relative viability EC50 [9],relative viability EC50 [10],drug sensitivity score [11],drug sensitivity score [12],drug sensitivity score [13],drug sensitivity score [14],drug sensitivity score [15]
Nc1ncnc2c1nc(Br)n2[C@@H]1O[C@@H]2COP(=O)(O)O[C@H]2[C@H]1O [8-bromo-cAMP],106%,95.8%,97.8%,98.5%,81.5%,92.8%,104%,95.9%,103%,95.8%,95.2%,96.5%,93.1%,98.2%,85.7%,102%,96.8%,105%,99%,102%,100%,102%,103%,102%,96%,> 10 µM,> 10 µM,> 10 µM,> 10 µM,> 10 µM,0.7,0,0,0,0
Cc1c(C(=O)NN2CCOCC2)nn(-c2ccc(Cl)cc2Cl)c1-c1ccc(I)cc1 [AM-281],96.8%,100%,96.2%,96.2%,107%,102%,113%,104%,94.5%,88.1%,105%,95.7%,102%,101%,103%,96.9%,101%,95.5%,100%,100%,98.3%,96.6%,98.4%,94.5%,106%,> 10 µM,> 10 µM,> 10 µM,> 10 µM,> 10 µM,0,0.2,0,0,0
C[C@H]1CC[C@H](n2c3cnccc3c3cnc(Nc4ccc5c(n4)CCN(C(=O)CO)C5)nc32)CC1 [AMG-925],112%,95.5%,96.4%,95.3%,91.3%,95.1%,109%,100%,109%,93%,105%,90.3%,113%,100%,101%,98.8%,100%,97.1%,99.4%,96.7%,99.6%,92.8%,96.1%,95.9%,104%,> 10 µM,> 10 µM,> 10 µM,> 10 µM,> 10 µM,0,0,0,0,0
Cc1ccc(S(=O)(=O)NCc2ccccc2)cc1 [BTS],95.1%,99.3%,101%,90%,99.9%,98.1%,100%,106%,102%,112%,102%,110%,95.3%,110%,107%,96.7%,97.4%,107%,98%,102%,104%,101%,91.7%,95.9%,93.4%,> 10 µM,> 10 µM,> 10 µM,> 10 µM,> 10 µM,0,0,0,0,0
CC(C)(C)NC(=O)N[C@H](C(=O)N1C[C@H]2[C@@H]([C@H]1C(=O)NC(CC1CCC1)C(=O)C(N)=O)C2(C)C)C(C)(C)C (stereo not given in full) [Boceprevir],103%,94.4%,108%,92.5%,105%,102%,95.1%,95.7%,100%,102%,102%,102%,95.6%,100%,105%,102%,93.7%,100%,96.1%,91.6%,102%,100%,102%,92.7%,99.9%,> 10 µM,> 10 µM,> 10 µM,> 10 µM,> 10 µM,0,0,0,0,0
C[C@H]1CCc2c(cc(Br)c(F)c2Br)N1C=O [CE3F4],105%,99.9%,91.9%,104%,88.8%,105%,102%,89.6%,93.7%,90%,110%,99.2%,113%,100%,103%,98.3%,101%,99.6%,102%,96.1%,103%,101%,98.2%,93.8%,102%,> 10 µM,> 10 µM,> 10 µM,> 10 µM,> 10 µM,0,0.2,0,0,0
Oc1cc2c(cc1O)[C@H](Cc1cccc3ccccc13)NCC2 [CKD-712],88.6%,94.2%,105%,98.4%,92.4%,105%,95%,108%,105%,102%,106%,101%,97.9%,99.7%,84.8%,101%,93.8%,98.6%,112%,96.6%,102%,100%,100%,99%,95.7%,> 10 µM,> 10 µM,> 10 µM,> 10 µM,> 10 µM,0,0,0.3,0,0
CCC[C@H](Nc1nc(-c2ccc(NC(=O)NCC)c(OC)c2)ncc1C)c1cccnc1 [CYT-997],97.9%,93.5%,84%,42.6%,38.2%,99.4%,96%,54.4%,37%,37.5%,101%,106%,51.8%,36.3%,33.3%,97.2%,102%,45.6%,19.1%,18.2%,95.7%,100%,98.5%,22%,23.7%,0.198 µM,0.0547 µM,0.0687 µM,0.0761 µM,0.303 µM,12.4,17.4,17.9,21.3,14.4
O=C1Nc2ccc(Cl)c3c2C1(CCCCN1CC=C(c2ccc(Cl)cc2)CC1)CCC3 (stereo not given) [DR-4485],103%,95.3%,99.6%,92.3%,4.8%,105%,87.6%,103%,99.9%,1.7%,93.7%,100%,94.1%,102%,-0.2%,96.2%,97.5%,98.6%,94.7%,2.4%,100%,96.7%,92.9%,91.1%,42.5%,2.5 µM,3.16 µM,3.27 µM,2.74 µM,1.95 µM,6.5,5.5,5.4,6.2,4.6
COc1cccc2c1C(=O)c1c(O)c3c(c(O)c1C2=O)C[C@@](O)(C(=O)CO)C[C@@H]3O[C@H]1C[C@H](N)[C@@H](O)[C@H](C)O1 [Epirubicin Hydrochloride],95.8 ± 5.9%,97 ± 6.3%,89 ± 1.4%,40.8 ± 1.2%,30.9 ± 1.7%,101 ± 3.3%,102 ± 6.4%,80 ± 6.6%,41.2 ± 1.1%,30.4 ± 0.49%,102.8 ± 0.14%,93.2 ± 12%,49.7 ± 0.57%,12.25 ± 0.071%,4.25 ± 0.64%,95.5 ± 1.4%,99.7 ± 0.28%,90.2 ± 1.8%,17.1 ± 9.9%,3.15 ± 1.3%,100 ± 2%,96.5 ± 2%,96 ± 3.5%,71.1 ± 3.7%,34.4 ± 8%,0.3 µM,0.224 µM,0.0903 µM,0.349 µM,1.13 µM,12.3 ± 0.35,13.3 ± 0.99,22.9 ± 0.14,16.6 ± 1.5,7
CC(=O)Nc1ccc(Cc2ccc(NC(C)=O)cc2)cc1 [FH1],107%,100%,104%,93.7%,102%,95.7%,99.9%,84.2%,92.8%,104%,99.5%,104%,107%,102%,96.8%,98.8%,96.6%,99.4%,104%,103%,99.8%,98.1%,96.8%,102%,98.9%,> 10 µM,> 10 µM,> 10 µM,> 10 µM,> 10 µM,0,0,0,0,0
NC(N)=Nc1nc(CSCC/C(N)=N/S(N)(=O)=O)cs1 [Famotidine],101%,101%,93.9%,96.8%,96.8%,84%,106%,89.8%,106%,90.1%,101%,97.4%,87.9%,100%,85.4%,98%,104%,98.6%,108%,97.5%,106%,105%,95.2%,102%,96.7%,> 10 µM,> 10 µM,> 10 µM,> 10 µM,> 10 µM,0,0,0,0,0
O=C(O)Cc1cccc(OCCCN(Cc2cccc(C(F)(F)F)c2Cl)CC(c2ccccc2)c2ccccc2)c1 [GW-3965],92.8%,107%,97.8%,98.1%,77.7%,93.6%,101%,108%,114%,98.8%,90.9%,99.3%,116%,97.5%,92.5%,100%,99.2%,98.2%,101%,95.6%,112%,98.8%,100%,101%,104%,> 10 µM,> 10 µM,> 10 µM,> 10 µM,> 10 µM,1,0,0,0,0
Cc1cc(C(=O)CN2CCCC2)c(C)n1-c1ccc(F)cc1 [IU1],103%,105%,101%,108%,99.1%,112%,99.9%,102%,109%,104%,95.7%,100%,101%,102%,103%,92.3%,98.8%,95.5%,96.2%,109%,99.2%,97.8%,98.4%,94.6%,105%,> 10 µM,> 10 µM,> 10 µM,> 10 µM,> 10 µM,0,0,0,0,0
